Our source for the IC50 values is US10246429B2, “Vinyl fluoride cyclopropyl fused thiazin-2-amine compounds as beta-secretase inhibitors and methods of use” (AMGEN INC., priority 2015, dated 2019).

The target in assay [1] is T1, BACE1 (Homo sapiens (Human), UniProt P56817). In words: In vitro enzymatic BACE1 FRET assay. It counts as biochemical. To be noted: read-out: IC50 IP (μM) BACE1 Enzyme.
Target sequence in this assay (P56817 46-501): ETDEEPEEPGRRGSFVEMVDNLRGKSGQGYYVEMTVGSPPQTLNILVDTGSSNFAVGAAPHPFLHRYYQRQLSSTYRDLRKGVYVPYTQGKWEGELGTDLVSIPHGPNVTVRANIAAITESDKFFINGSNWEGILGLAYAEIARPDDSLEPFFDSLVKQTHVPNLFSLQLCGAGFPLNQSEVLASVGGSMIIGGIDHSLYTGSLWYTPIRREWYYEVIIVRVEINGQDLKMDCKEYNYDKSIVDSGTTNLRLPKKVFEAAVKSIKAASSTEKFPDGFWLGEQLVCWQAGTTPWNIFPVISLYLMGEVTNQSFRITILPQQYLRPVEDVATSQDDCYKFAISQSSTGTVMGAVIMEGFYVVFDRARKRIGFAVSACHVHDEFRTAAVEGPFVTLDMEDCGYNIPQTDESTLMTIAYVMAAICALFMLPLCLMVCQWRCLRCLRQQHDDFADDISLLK
From the text: (§1) In Vitro Enzymatic BACE1 and BACE2 FRET (Fluorescence Resonance Energy Transfer) Assays (Enzyme Assay Data in Table 1)
Another assay deals with Cathepsin D (CatD) (Homo sapiens (Human), UniProt P07339). In words: CatD assay. Format: biochemical. As to conditions: read-out: IC50 IP (μM) CatD.
Cathepsin D (CatD), sequence (P07339 65-412, species assumed): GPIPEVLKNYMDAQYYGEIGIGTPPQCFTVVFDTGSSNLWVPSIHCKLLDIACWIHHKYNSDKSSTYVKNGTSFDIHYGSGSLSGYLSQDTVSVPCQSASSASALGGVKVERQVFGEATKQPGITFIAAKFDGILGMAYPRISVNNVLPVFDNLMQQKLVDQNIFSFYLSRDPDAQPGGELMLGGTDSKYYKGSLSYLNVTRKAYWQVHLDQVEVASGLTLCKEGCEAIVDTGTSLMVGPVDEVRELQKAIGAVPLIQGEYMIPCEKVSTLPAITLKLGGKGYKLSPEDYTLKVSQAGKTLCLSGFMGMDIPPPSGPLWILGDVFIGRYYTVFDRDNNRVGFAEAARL
The target in the next assay is BACE2 (Homo sapiens (Human), UniProt Q9Y5Z0). In words: In vitro enzymatic BACE2 FRET assay. Format: biochemical. As to conditions: read-out: IC50 IP (μM) BACE2 Enzyme.
BACE2, sequence (Q9Y5Z0 63-518): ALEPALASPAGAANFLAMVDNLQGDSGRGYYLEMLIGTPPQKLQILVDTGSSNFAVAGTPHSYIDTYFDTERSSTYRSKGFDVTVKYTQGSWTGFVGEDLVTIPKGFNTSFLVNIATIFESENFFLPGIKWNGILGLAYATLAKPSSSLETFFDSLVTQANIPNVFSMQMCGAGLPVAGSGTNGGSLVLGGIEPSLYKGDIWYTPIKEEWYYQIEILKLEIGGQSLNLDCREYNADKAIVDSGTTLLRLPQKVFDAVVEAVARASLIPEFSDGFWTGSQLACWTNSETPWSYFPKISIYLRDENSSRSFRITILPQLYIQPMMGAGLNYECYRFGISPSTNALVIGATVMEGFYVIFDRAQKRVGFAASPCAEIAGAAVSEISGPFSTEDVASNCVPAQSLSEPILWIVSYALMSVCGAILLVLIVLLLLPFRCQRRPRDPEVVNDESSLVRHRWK
The target in assay [2] is T1, BACE1. In words: BACE1 cell assay. It counts as cell-based. To be noted: read-out: IC50 IP (μM) BACE1 Cell.
Target sequence in this assay (P56817 46-501, species assumed): as the sequence (P56817 46-501) above

Molecules are shown by their SMILES.

From the text for BACE2: as §1

With `C[C@H]1CCN1C(=O)[C@]12C[C@H]1[C@@](C)(c1cc(/C=C(\F)c3ccc(Cl)cn3)ccc1F)N=C(N)S2` (single isomer, unassigned) [Example 119], the IC50 (as a rule, the concentration that gives 50% inhibition) stood at 0.0034 µM at BACE1 [1], 42.3 µM at Cathepsin D (CatD), 0.00752 µM at BACE2 and 0.00406 µM on BACE1 [2].
With `COC[C@]12C[C@H]1[C@@](CF)(c1cc(/C=C(\F)c3ccc(Cl)cn3)ccc1F)N=C(N)S2` [Example 100, (1S,5S,6S)-5-(5-((Z)-2-(5-chloropyridin-2-yl)-2-fluorovinyl)-2-fluorophenyl)-5-(fluoromethyl)-1-(methoxymethyl)-2-thia-4-azabicyclo[4.1.0]hept-3-en-3-amine], the IC50 worked out at 0.0228 µM at BACE1 [1], 933 µM at Cathepsin D (CatD), 0.0421 µM on BACE2 and 0.26 µM at BACE1 [2].
In the case of `COC[C@]12C[C@H]1[C@@](CF)(c1cc(/C=C(/F)c3ccc(Cl)cn3)ccc1F)N=C(N)S2` [Example 101, (1S,5S,6S)-5-(5-((E)-2-(5-chloropyridin-2-yl)-2-fluorovinyl)-2-fluorophenyl)-5-(fluoromethyl)-1-(methoxymethyl)-2-thia-4-azabicyclo[4.1.0]hept-3-en-3-amine], the IC50 was found to be 0.303 µM at BACE1 [1], 154 µM on Cathepsin D (CatD), 0.281 µM at BACE2 and 1.6 µM at BACE1 [2].
`COc1ccc(/C(F)=C/c2ccc(F)c([C@@]3(C)N=C(N)S[C@@]4(C(=O)N5CCCC5)C[C@H]43)c2)nc1` [Example 104, ((1S,5S,6S)-3-amino-5-(2-fluoro-5-((Z)-2-fluoro-2-(5-methoxypyridin-2-yl)vinyl)phenyl)-5-methyl-2-thia-4-azabicyclo[4.1.0]hept-3-en-1-yl)(pyrrolidin-1-yl)methanone]: the IC50 at BACE1 [1] was determined as 0.0226 µM; on Cathepsin D (CatD) it was 185 µM; on BACE2, 0.144 µM; at BACE1 [2] it was 0.0221 µM.
Take `CN(C)C(=O)[C@]12C[C@H]1[C@@](C)(c1cc(/C=C(\F)c3ccc(Br)cn3)ccc1F)N=C(N)S2` [Example 108, (1S,5S,6S)-3-amino-5-(5-((Z)-2-(5-bromopyridin-2-yl)-2-fluorovinyl)-2-fluorophenyl)-N,N,5-trimethyl-2-thia-4-azabicyclo[4.1.0]hept-3-ene-1-carboxamide]: the IC50 on BACE1 [1] was 0.00199 µM; at Cathepsin D (CatD), 519 µM; on BACE2, 0.00292 µM; at BACE1 [2], 0.00853 µM.
For `CN(C)C(=O)[C@]12C[C@H]1[C@@](C)(c1cc(/C=C(\F)c3ccc(C#CC4CC4)cn3)ccc1F)N=C(N)S2` [Example 109, (1S,5S,6S)-3-amino-5-(5-((Z)-2-(5-(cyclopropylethynyl)pyridin-2-yl)-2-fluorovinyl)-2-fluorophenyl)-N,N,5-trimethyl-2-thia-4-azabicyclo[4.1.0]hept-3-ene-1-carboxamide], the IC50 at BACE1 [1] is 0.00849 µM; on Cathepsin D (CatD), 138 µM; on BACE2, 0.0615 µM; on BACE1 [2], 0.223 µM.
Consider `C#Cc1ccc(/C(F)=C/c2ccc(F)c([C@@]3(C)N=C(N)S[C@@]4(C(=O)N(C)C)C[C@H]43)c2)nc1` [Example 110, (1S,5S,6S)-3-amino-5-(5-((Z)-2-(5-ethynylpyridin-2-yl)-2-fluorovinyl)-2-fluorophenyl)-N,N,5-trimethyl-2-thia-4-azabicyclo[4.1.0]hept-3-ene-1-carboxamide], for which the half-maximal inhibitory concentration (IC50) amounted to 0.00324 µM at BACE1 [1], 403 µM at Cathepsin D (CatD), 0.0144 µM on BACE2 and 0.0127 µM on BACE1 [2].
With `C[C@]1(c2cc(/C=C(\F)c3ccc(Cl)cn3)ccc2F)N=C(N)S[C@@]2(CC#N)C[C@H]21` [Example 114, 2-((1R,5S,6S)-3-amino-5-(5-((Z)-2-(5-chloropyridin-2-yl)-2-fluorovinyl)-2-fluorophenyl)-5-methyl-2-thia-4-azabicyclo[4.1.0]hept-3-en-1-yl)acetonitrile], the IC50 at BACE1 [1] was determined as 0.021 µM; at Cathepsin D (CatD), 668 µM; at BACE2, 0.0555 µM; at BACE1 [2], 0.446 µM.
For `CC1CCN1C(=O)[C@]12C[C@H]1[C@@](C)(c1cc(/C=C(\F)c3ccc(Cl)cn3)ccc1F)N=C(N)S2` (stereo partly drawn) [Example 116, ((1S,5S,6S)-3-amino-5-(5-((Z)-2-(5-chloropyridin-2-yl)-2-fluorovinyl)-2-fluorophenyl)-5-methyl-2-thia-4-azabicyclo[4.1.0]hept-3-en-1-yl)(2-methylazetidin-1-yl)methanone] the same measures were 0.00623 µM, 107 µM, 0.0119 µM and 0.00929 µM.
In the case of `C[C@]1(c2cc(/C=C(\F)c3ccc(Cl)cn3)ccc2F)N=C(N)S[C@@]2(C(=O)Nc3ccccc3)C[C@H]21` [Example 118, (1S,5S,6S)-3-amino-5-(5-((Z)-2-(5-chloropyridin-2-yl)-2-fluorovinyl)-2-fluorophenyl)-5-methyl-N-phenyl-2-thia-4-azabicyclo[4.1.0]hept-3-ene-1-carboxamide], the IC50 on BACE1 [1] was found to be 0.0299 µM; at Cathepsin D (CatD) it was 13.4 µM; at BACE2, 0.047 µM; at BACE1 [2], 0.291 µM.
On to `C[C@@H]1CCN1C(=O)[C@]12C[C@H]1[C@@](C)(c1cc(/C=C(\F)c3ccc(Cl)cn3)ccc1F)N=C(N)S2` [Example 120, ((1S,5S,6S)-3-amino-5-(5-((Z)-2-(5-chloropyridin-2-yl)-2-fluorovinyl)-2-fluorophenyl)-5-methyl-2-thia-4-azabicyclo[4.1.0]hept-3-en-1-yl)((R)-2-methylazetidin-1-yl)methanone], for which the half-maximal inhibitory concentration (IC50) on BACE1 [1] was found to be 0.00275 µM; at Cathepsin D (CatD), 132 µM; at BACE2, 0.0108 µM; at BACE1 [2] it was 0.0267 µM.
In the case of `C[C@]1(c2cc(/C=C(\F)c3ccc(C#N)cn3)ccc2F)N=C(N)S[C@@]2(C(=O)N3Cc4ccccc4C3)C[C@H]21` [Example 129, 6-((Z)-2-(3-((1S,5S,6S)-3-amino-1-(isoindoline-2-carbonyl)-5-methyl-2-thia-4-azabicyclo[4.1.0]hept-3-en-5-yl)-4-fluorophenyl)-1-fluorovinyl)nicotinonitrile bis(2,2,2-trifluoroacetate)], the IC50 was determined as 0.00117 µM at BACE1 [1], 133 µM at Cathepsin D (CatD), 0.0311 µM on BACE2 and 0.0165 µM on BACE1 [2].
For the molecule `COC(=O)[C@H]1CCCN1C(=O)[C@]12C[C@H]1[C@@](C)(c1cc(/C=C(\F)c3ccc(C#N)cn3)ccc1F)N=C(N)S2` [Example 130, (R)-methyl 1-((1S,5S,6S)-3-amino-5-(5-((Z)-2-(5-cyanopyridin-2-yl)-2-fluorovinyl)-2-fluorophenyl)-5-methyl-2-thia-4-azabicyclo[4.1.0]hept-3-ene-1-carbonyl)pyrrolidine-2-carboxylate bis(2,2,2-trifluoroacetate)], the IC50 at BACE1 [1] was found to be 0.0034 µM; on Cathepsin D (CatD) it was 120 µM; at BACE2 it was 0.121 µM; on BACE1 [2], 0.00747 µM.
Regarding `CC1(C)CC2CC(C)(CN2C(=O)[C@]23C[C@H]2[C@@](C)(c2cc(/C=C(\F)c4ccc(C#N)cn4)ccc2F)N=C(N)S3)C1` (stereo partly drawn) [Example 136, 6-((Z)-2-(3-((1S,5S,6S)-3-amino-5-methyl-1-(1,3,3-trimethyl-6-azabicyclo[3.2.1]octane-6-carbonyl)-2-thia-4-azabicyclo[4.1.0]hept-3-en-5-yl)-4-fluorophenyl)-1-fluorovinyl)nicotinonitrile], the IC50 on BACE1 [1] was 0.00582 µM; on Cathepsin D (CatD) it was 4.18 µM; at BACE2, 0.0363 µM; at BACE1 [2], 0.0154 µM.
As for `C[C@]1(c2cc(/C=C(\F)c3ccc(C#N)cn3)ccc2F)N=C(N)S[C@@]2(C(=O)N3CCNC(=O)CC3)C[C@H]21` [Example 142, 6-((Z)-2-(3-((1S,5S,6S)-3-amino-5-methyl-1-(5-oxo-1,4-diazepane-1-carbonyl)-2-thia-4-azabicyclo[4.1.0]hept-3-en-5-yl)-4-fluorophenyl)-1-fluorovinyl)nicotinonitrile], the IC50 on BACE1 [1] was determined as 0.00178 µM; at Cathepsin D (CatD), 400 µM; on BACE2, 0.0173 µM; at BACE1 [2] it was 0.00219 µM.
Regarding `CC1CCN(C(=O)[C@]23C[C@H]2[C@@](C)(c2cc(/C=C(\F)c4ccc(C#N)cn4)ccc2F)N=C(N)S3)CC1` [Example 147, 6-((Z)-2-(3-((1S,5S,6S)-3-amino-5-methyl-1-(4-methylpiperidine-1-carbonyl)-2-thia-4-azabicyclo[4.1.0]hept-3-en-5-yl)-4-fluorophenyl)-1-fluorovinyl)nicotinonitrile], the IC50 came out at 0.000793 µM at BACE1 [1], 93.9 µM on Cathepsin D (CatD), 0.00486 µM at BACE2 and 0.003 µM at BACE1 [2].
The matching figures for `CNC(=O)[C@]12C[C@H]1[C@@](C)(c1cc(/C=C(\F)c3cnc(OCC(C)=O)cn3)ccc1F)N=C(N)S2` [Example 152, (1S,5S,6S)-3-amino-5-(2-fluoro-5-((Z)-2-fluoro-2-(5-(2-oxopropoxy)pyrazin-2-yl)vinyl)phenyl)-N,5-dimethyl-2-thia-4-azabicyclo[4.1.0]hept-3-ene-1-carboxamide]: 0.052 µM, 71.8 µM, 1.51 µM and 0.0846 µM.
For the molecule `CN(C)C(=O)[C@]12C[C@H]1[C@@](C)(c1cc(/C=C(\F)c3cnc(OCc4ncco4)cn3)ccc1F)N=C(N)S2` [Example 154, (1S,5S,6S)-3-amino-5-(2-fluoro-5-((Z)-2-fluoro-2-(5-(oxazol-2-ylmethoxy)pyrazin-2-yl)vinyl)phenyl)-N,N,5-trimethyl-2-thia-4-azabicyclo[4.1.0]hept-3-ene-1-carboxamide], the IC50 at BACE1 [1] was found to be 0.00798 µM; at Cathepsin D (CatD), 107 µM; at BACE2, 0.0455 µM; at BACE1 [2], 0.0049 µM.
